{"source": "patent US20030171420A1", "about": "“Compounds and compositions for use in ingibting endoparasitic fatty acid biosynthesis” (priority 2000, published 2003)", "key": {"[1]": {"test_system": "Eimeria tenella parasites", "test": "Eimeria tenella uracil uptake in infected MDBK cells", "format": "cell-based", "conditions": "uracil uptake as indicator of parasite viability", "procedure": "(§1) Compound C was tested against Eimeria tenella parasites in two separate assay procedures, as described (i) in Inhibition of the development of Eimeria tenella in cultured bovine kidney cells by a soluble factor produced by peripheral blood lymphocytes from immune chickens, J. M. Bumstead, S. J. Topham, F. M. Tomley, Parasitology, 117.39-47 (1998) and (ii) Eimeria tenella: Parasite-specific incorporation of 3H Uracil as a quantitative measure of intracellular development, Schmatz, D. M., Crane, M. S., is Murray, P. K., Journal of Protozology (1986) 33:109-114.\nIn the second assay using infected MDBK cells, compound C caused a significant decrease in the uptake of uracil by the parasites (a recognised indicator of parasite viability) at concentrations greater than 5 μM."}, "Plasmodium falciparum": {"test_system": "Plasmodium falciparum", "test": "Plasmodium falciparum growth inhibition in human red blood cells (parasite lactate dehydrogenase assay)", "format": "cell-based", "conditions": "for IC50: Plasmodium falciparum, Erythrocyte, at 48 hours, P. falciparum in human red blood cells, read-out: 50% inhibitory concentration (IC50) for parasite growth", "procedure": "Plasmodium falciparum was maintained in human red blood cells and the inhibitory effects of racemic thiolactomycin, or compound C on its growth was measured, employing assay techniques as described by Makkler, M. T., Ries, J. M., Williams, J. A., Bancroft, J. E., Piper, R. C., Gibbins, B. L. and Hinrichs, D. J., Parasite lactate dehydrogenase as an assay for Plasmodium falciparum drug sensitivity. Am. J. Trop. Med. Hyg. 48, 739-41 (1993)."}, "[2]": {"test_system": "Eimeria tenella parasites", "test": "Eimeria tenella invasion of MDBK cells after preincubation of parasites with compound", "format": "cell-based", "procedure": "as §1\nPreincubation of compound C with parasites caused a significant reduction in invasion of Madin-Darby Bovine Kidney (MDBK) cells at concentrations of 10 μM and above."}, "[3]": {"test_system": "fatty acid synthesis in Trypanosoma brucei", "conditions": "Morita et al., Science 288: 140-143 (2000); read-out: IC50 for inhibition of fatty acid synthesis in Trypanosoma brucei; cited from earlier work"}}}
{"smiles": "CC(C)=CCC/C(C)=C/CC1(C)SC(=O)C(C)=C1O", "note": "(stereo not drawn) [Compound C]", "values": [{"measurement": "concentrations causing a significant decrease in the uptake of uracil by the parasites", "setting": "[1]", "value": "greater than 5 μM"}, {"measurement": "IC50", "setting": "Plasmodium falciparum", "value": 0.5, "unit": "µM"}, {"measurement": "times more active than racemic thiolactomycin in inhibiting growth of Plasmodium falciparum", "setting": "Plasmodium falciparum; ratio of IC50 values at 48 hours", "value": "approximately 80 times"}, {"measurement": "concentrations causing a significant reduction in invasion of Madin-Darby Bovine Kidney (MDBK) cells", "setting": "[2]", "value": "≥ 10", "unit": "µM"}]}
{"smiles": "C=C/C(C)=C/C1(C)SC(=O)C(C)=C1O", "note": "(racemic) [Racemic thiolactomycin, Thiolactomycin, reference compound]", "values": [{"measurement": "IC50", "setting": "Plasmodium falciparum", "value": 40, "unit": "µM"}, {"measurement": "IC50", "setting": "[3]", "value": "~150", "unit": "µM"}]}
